Laboratory results: US10039753B2, “Imidazo[4,5-c]quinoline and imidazo[4,5-c][1,5]naphthyridine derivatives as LRRK2 inhibitors” (Pfizer Inc., priority 2015, dated 2018)
Counter-ions that a name gives are not always drawn.

Columns and labels:
[1] = target: T1, GST-tagged truncated LRRK2 (Homo sapiens, UniProt Q5S007); assay: LRRK2 Assay, Format 1 (Lantha Screen), WT; format: biochemical
T1 construct: GST-tagged truncated LRRK2 from Invitrogen (Cat # PV4874); GST; purchased Invitrogen PV4874
Procedure: LRRK2 kinase activity was measured using Lantha Screen technology from Invitrogen. GST-tagged truncated LRRK2 from Invitrogen (Cat # PV4874) was incubated with a fluorescein-labeled peptide substrate based upon ezrin/radixin/moesin (ERM), also known as LRRKtide (Invitrogen cat # PR8976A), in the presence of a dose response of compound. Upon completion, the assay was stopped and detected with a terbium labeled anti-phospho-ERM antibody (Invitrogen, cat # PR8975A). […] Aliquots (3.5 μL) of the 100% DMSO dose response were mixed with 46.5 μL water then 1 μL of this mixture was added to the 3 μL substrate mix in the 384-well plate. The kinase reaction was started with 3 μL of a working solution of LRRK2 enzyme at a concentration of 4 μg/mL. […] The reaction was allowed to progress at room temperature for two hours and then stopped with the addition of 7 μL of detection buffer (20 mM Tris pH 7.6, 0.01% NP-40, 0.02% NaN3, 6 mM EDTA with 2 nM terbium labeled anti-phospho-ERM).

mutant G2019S LRRK2 = mutant G2019S LRRK2 (Homo sapiens, UniProt Q5S007, G2019S); assay: LRRK2 Assay, Format 1 (Lantha Screen), G2019S mutant
Chain of mutant G2019S LRRK2 (Q5S007 970-2527 G2019S limits assumed): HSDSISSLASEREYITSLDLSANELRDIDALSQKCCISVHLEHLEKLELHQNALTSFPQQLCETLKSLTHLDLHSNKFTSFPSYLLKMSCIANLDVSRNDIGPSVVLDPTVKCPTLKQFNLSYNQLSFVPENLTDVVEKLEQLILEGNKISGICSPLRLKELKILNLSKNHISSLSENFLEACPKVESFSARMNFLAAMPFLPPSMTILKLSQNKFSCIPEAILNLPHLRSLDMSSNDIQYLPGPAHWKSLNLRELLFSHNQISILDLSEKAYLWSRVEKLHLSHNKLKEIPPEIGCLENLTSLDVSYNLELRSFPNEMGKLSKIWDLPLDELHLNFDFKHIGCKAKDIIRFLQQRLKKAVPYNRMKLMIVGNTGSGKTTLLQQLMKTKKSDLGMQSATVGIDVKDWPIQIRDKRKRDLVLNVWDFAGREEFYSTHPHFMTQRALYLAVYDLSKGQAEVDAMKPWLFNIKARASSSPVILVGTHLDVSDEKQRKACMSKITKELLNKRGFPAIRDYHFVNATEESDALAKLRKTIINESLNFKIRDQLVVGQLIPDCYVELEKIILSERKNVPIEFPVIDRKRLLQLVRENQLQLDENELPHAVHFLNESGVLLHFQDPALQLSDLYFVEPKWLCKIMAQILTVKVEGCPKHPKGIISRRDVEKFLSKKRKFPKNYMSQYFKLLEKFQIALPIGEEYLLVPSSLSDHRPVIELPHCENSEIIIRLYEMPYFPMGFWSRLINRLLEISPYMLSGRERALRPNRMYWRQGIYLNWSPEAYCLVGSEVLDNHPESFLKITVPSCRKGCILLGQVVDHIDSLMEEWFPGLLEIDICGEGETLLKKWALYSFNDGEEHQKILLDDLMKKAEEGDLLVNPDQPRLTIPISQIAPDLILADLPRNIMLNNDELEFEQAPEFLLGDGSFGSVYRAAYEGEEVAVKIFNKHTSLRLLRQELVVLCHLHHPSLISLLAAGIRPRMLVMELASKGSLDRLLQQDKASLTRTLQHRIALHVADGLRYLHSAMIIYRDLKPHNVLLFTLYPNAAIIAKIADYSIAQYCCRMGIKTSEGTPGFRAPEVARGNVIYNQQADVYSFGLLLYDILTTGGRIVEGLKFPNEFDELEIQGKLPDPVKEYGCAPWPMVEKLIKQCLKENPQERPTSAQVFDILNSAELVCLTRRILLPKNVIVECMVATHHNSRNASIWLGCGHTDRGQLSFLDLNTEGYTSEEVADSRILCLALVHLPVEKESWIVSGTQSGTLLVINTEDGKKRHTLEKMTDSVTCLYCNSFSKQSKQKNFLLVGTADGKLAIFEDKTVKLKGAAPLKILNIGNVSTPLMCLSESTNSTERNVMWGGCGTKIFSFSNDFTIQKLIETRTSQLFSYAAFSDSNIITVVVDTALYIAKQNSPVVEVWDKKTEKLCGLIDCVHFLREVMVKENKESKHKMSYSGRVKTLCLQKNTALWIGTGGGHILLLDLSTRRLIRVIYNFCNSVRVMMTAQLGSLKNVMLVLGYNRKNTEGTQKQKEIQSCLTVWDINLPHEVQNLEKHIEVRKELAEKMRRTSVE
Excerpt: All final concentrations of substrate ATP and enzyme were the same.

[2] = Format 1, wild-type LRRK2, geometric mean of 2-4 determinations unless footnoted (a: ≥5 determinations; b: single determination; c: determined on trifluoroacetate salt)
[3] = 100 nM LRRKtide, 50 μM ATP, 1.7 μg/mL LRRK2 enzyme, two hours at room temperature

T1 sequence (Q5S007 970-2527 limits assumed): as the sequence (Q5S007 970-2527 G2019S limits assumed) above, with S1050G counted along it

SMILES	IC50 [1, 2]	IC50 (mutant G2019S LRRK2)	IC50 [1, 3]
CC1(C)CC(n2c(Cc3ccon3)nc3cnc4ccc(F)cc4c32)CCO1 (stereo not drawn) [Example 84, 1-(2,2-dimethyltetrahydro-2H-pyran-4-yl)-8-fluoro-2-(1,2-oxazol-3-ylmethyl)-1H-imidazo[4,5-c]quinoline, trifluoroacetate salt]	31.4 nM	24.9 nM	
c1ccc2c(c1)ncc1nc(Cc3noc4ccccc34)n(C3CCOCC3)c12 [Example 29, 2-(1,2-benzoxazol-3-ylmethyl)-1-(tetrahydro-2H-pyran-4-yl)-1H-imidazo[4,5-c]quinoline]	164 nM	226 nM	
O[C@@H]1CCC[C@@H](n2c(Cc3ccon3)nc3cnc4ccccc4c32)C1 (racemic) [Example 49, trans-3-[2-(1,2-oxazol-3-ylmethyl)-1H-imidazo[4,5-c]quinolin-1-yl]cyclohexanol]	152 nM	81.2 nM	
Fc1ccc2ncc3nc(Cn4cc(C(F)(F)F)nn4)n(C4CCOCC4)c3c2c1 [Example 74, 8-fluoro-1-(tetrahydro-2H-pyran-4-yl)-2-{[4-(trifluoromethyl)-1H-1,2,3-triazol-1-yl]methyl}-1H-imidazo[4,5-c]quinoline, trifluoroacetate salt]	112 nM	102 nM	
Clc1cn2cc(Cc3nc4cnc5ccccc5c4n3C3CCOCC3)nc2s1 [Example 71, 2-[(2-chloroimidazo[2,1-b][1,3]thiazol-6-yl)methyl]-1-(tetrahydro-2H-pyran-4-yl)-1H-imidazo[4,5-c]quinoline, trifluoroacetate salt]	106 nM	120 nM	
C[C@@H]1C[C@H](n2c(Cc3cscn3)nc3cnc4ccc(Br)cc4c32)C[C@H](C)O1 [Example 60]	35.1 nM	11.5 nM	
c1ccc2c(c1)ncc1nc(Cn3cnnn3)n(C3CCOCC3)c12 [Example 35, 1-(tetrahydro-2H-pyran-4-yl)-2-(1H-tetrazol-1-ylmethyl)-1H-imidazo[4,5-c]quinoline]	152 nM	211 nM	
COCc1cn(Cc2nc3cnc4ccccc4c3n2C2CCOCC2)nn1 [Example 33, 2-{[4-(methoxymethyl)-1H-1,2,3-triazol-1-yl]methyl}-1-(tetrahydro-2H-pyran-4-yl)-1H-imidazo[4,5-c]quinoline]	124 nM	172 nM	
C[C@@H]1C[C@H](n2c(Cc3ccon3)nc3cnc4ccc(Br)cc4c32)C[C@H](C)O1 [Example 59, 8-bromo-1-[(2R,4r,6S)-2,6-dimethyltetrahydro-2H-pyran-4-yl]-2-(1,2-oxazol-3-ylmethyl)-1H-imidazo[4,5-c]quinoline]	176 nM	52 nM	
c1ccc2c(c1)ncc1nc(Cc3ccon3)n(C3CCCCC3)c12 [Example 50, 1-cyclohexyl-2-(1,2-oxazol-3-ylmethyl)-1H-imidazo[4,5-c]quinoline]	127 nM	57.7 nM	
c1ccc2c(c1)ncc1nc(Cn3cc(C4CC4)nn3)n(C3CCOCC3)c12 [Example 42, 2-[(4-cyclopropyl-1H-1,2,3-triazol-1-yl)methyl]-1-(tetrahydro-2H-pyran-4-yl)-1H-imidazo[4,5-c]quinoline]	51.2 nM	55.9 nM	
Fc1ccc2ncc3nc(Cn4cc(C(F)(F)F)cn4)n(C4CCOCC4)c3c2c1 [Example 78, 8-fluoro-1-(tetrahydro-2H-pyran-4-yl)-2-{[4-(trifluoromethyl)-1H-pyrazol-1-yl]methyl}-1H-imidazo[4,5-c]quinoline, trifluoroacetate salt]	145 nM	115 nM	
c1ccc2c(c1)ncc1nc(Cc3ccon3)n(C3CCOCC3)c12 [Example 18, 2-(1,2-oxazol-3-ylmethyl)-1-(tetrahydro-2H-pyran-4-yl)-1H-imidazo[4,5-c]quinoline]	153 nM	250 nM	
Cc1cn(Cc2nc3cnc4ccccc4c3n2C2CCOCC2)nn1 [Example 32, 2-[(4-methyl-1H-1,2,3-triazol-1-yl)methyl]-1-(tetrahydro-2H-pyran-4-yl)-1H-imidazo[4,5-c]quinoline]	98.6 nM	121 nM	
Cc1cn(Cc2nc3cnc4ccccc4c3n2[C@@H]2CC[C@H](F)C2)nn1 [Example 27, 1-[(1R,3S)-3-fluorocyclopentyl]-2-[(4-methyl-1H-1,2,3-triazol-1-yl)methyl]-1H-imidazo[4,5-c]quinoline, formate salt]	188 nM	118 nM	
F[C@H]1CC[C@@H](n2c(Cn3cncn3)nc3cnc4ccccc4c32)C1 [Example 26, 1-[(1R,3S)-3-fluorocyclopentyl]-2-(1H-1,2,4-triazol-1-ylmethyl)-1H-imidazo[4,5-c]quinoline]	162 nM	155 nM	

Continued, values first:

IC50 [1, 2]	IC50 (mutant G2019S LRRK2)	IC50 [1, 3]	SMILES
10.3 nM	6.4 nM		C[C@@H]1C[C@H](n2c(Cc3ncon3)nc3cnc4ccc(Cl)cc4c32)CCO1 [Example 13, 8-chloro-1-[(2R,4R)-2-methyltetrahydro-2H-pyran-4-yl]-2-(1,2,4-oxadiazol-3-ylmethyl)-1H-imidazo[4,5-c]quinoline]
	245 nM	623 nM	COc1ccc2ncc3nc(Cc4cn5ncsc5n4)n([C@H]4CCO[C@@H](C)C4)c3c2c1 [enantiomer of Example 90, 2-(imidazo[2,1-b][1,3,4]thiadiazol-6-ylmethyl)-8-methoxy-1-[(2S,4S)-2-methyltetrahydro-2H-pyran-4-yl]-1H-imidazo[4,5-c]quinoline]
5.2 nM	3.9 nM		C[C@@H]1C[C@H](n2c(Cc3ccon3)nc3cnc4ccc(C#N)cc4c32)CCO1 [Example 22, 1-[(2R,4R)-2-methyltetrahydro-2H-pyran-4-yl]-2-(1,2-oxazol-3-ylmethyl)-1H-imidazo[4,5-c]quinoline-8-carbonitrile]
16.2 nM	11 nM		Cc1cnc(Cc2nc3cnc4ccc(Cl)cc4c3n2[C@@H]2CCO[C@H](C)C2)o1 [Example 92, 8-chloro-2-[(5-methyl-1,3-oxazol-2-yl)methyl]-1-[(2R,4R)-2-methyltetrahydro-2H-pyran-4-yl]-1H-imidazo[4,5-c]quinoline]
23.6 nM	19.2 nM		C[C@@H]1C[C@H](n2c(Cc3ccon3)nc3cnc4cccnc4c32)CCO1 [Example 68, 1-[(2R,4R)-2-methyltetrahydro-2H-pyran-4-yl]-2-(1,2-oxazol-3-ylmethyl)-1H-imidazo[4,5-c][1,5]naphthyridine]
1260 nM	478 nM		COc1ccc2ncc3nc(Cc4cc(C)on4)n([C@H]4CCO[C@@H](C)C4)c3c2c1 (single isomer, unassigned) [Example C12]
7.6 nM	5.6 nM		C[C@H]1C[C@@H](n2c(Cc3cn4ncsc4n3)nc3cnc4ccc(F)cc4c32)CCO1 (racemic) [Example 86, 8-fluoro-2-(imidazo[2,1-b][1,3,4]thiadiazol-6-ylmethyl)-1-(cis-2-methyltetrahydro-2H-pyran-4-yl)-1H-imidazo[4,5-c]quinoline]
2.8 nM	1.8 nM		C[C@@H]1C[C@H](n2c(Cn3cncn3)nc3cnc4ccc(Cl)cc4c32)CCO1 (single isomer, unassigned) [Example 65]
32.5 nM	16.4 nM		CC[C@H]1C[C@@H](n2c(Cc3ccon3)nc3cnc4ccc(Br)cc4c32)CCO1 (racemic) [Example 66, 8-bromo-1-(cis-2-ethyltetrahydro-2H-pyran-4-yl)-2-(1,2-oxazol-3-ylmethyl)-1H-imidazo[4,5-c]quinoline]
103 nM	157 nM		Cc1cc(Cc2nc3cnc4ccccc4c3n2C2CCOCC2)no1 [Example 39, 2-[(5-methyl-1,2-oxazol-3-yl)methyl]-1-(tetrahydro-2H-pyran-4-yl)-1H-imidazo[4,5-c]quinoline]
	508 nM	1710 nM	COc1ccc2ncc3nc(Cc4ccon4)n([C@H]4CCO[C@@H](C)C4)c3c2c1 [enantiomer of Example 62, 8-methoxy-1-[(2S,4S)-2-methyltetrahydro-2H-pyran-4-yl]-2-(1,2-oxazol-3-ylmethyl)-1H-imidazo[4,5-c]quinoline]
72 nM	62 nM		C[C@H]1C[C@H](n2c(Cc3ccon3)nc3cnc4ccc(C#N)cc4c32)CCO1 [Example 24, 1-[(2S,4R)-2-methyltetrahydro-2H-pyran-4-yl]-2-(1,2-oxazol-3-ylmethyl)-1H-imidazo[4,5-c]quinoline-8-carbonitrile]
	134 nM	267 nM	C[C@@H]1C[C@@H](n2c(Cc3ccon3)nc3cnc4ccc(C#N)cc4c32)CCO1 [enantiomer of Example 24, 1-[(2R,4S)-2-methyltetrahydro-2H-pyran-4-yl]-2-(1,2-oxazol-3-ylmethyl)-1H-imidazo[4,5-c]quinoline-8-carbonitrile]
	258 nM	534 nM	C[C@H]1C[C@@H](n2c(Cc3ccon3)nc3cnc4ccc(C#N)cc4c32)CCO1 [enantiomer of Example 22, 1-[(2 S,4S)-2-methyltetrahydro-2H-pyran-4-yl]-2-(1,2-oxazol-3-ylmethyl)-1H-imidazo[4,5-c]quinoline-8-carbonitrile]
